The values below come from PMC9065678, “BI 1015550 is a PDE4B Inhibitor and a Clinical Drug Candidate for the Oral Treatment of Idiopathic Pulmonary Fibrosis” (Frontiers in Pharmacology, 2022).

Molecules are shown by their SMILES.

In one test the test system is IPF-LF cells. Put plainly: bFGF plus IL-1β-induced proliferation of IPF lung fibroblasts (bromodeoxyuridine assay). The test is classed as cell-based. How it is done:
Fibroblasts from donors with IPF (IPF-LF) (Asterand, Detroit, MI, United States) were grown in fibroblast basal medium (CC-3131, Lonza Walkersville, Inc., Walkersville, MD, United States) supplemented with FGM-2 SingleQuot Kit Supplements and Growth Factors (CC-4126, Lonza). Cells were grown in a humidified incubator at 37°C and 5% CO2. All assays were performed at passage 7 or 8. For assay set-up, cells were seeded in fibroblast growth medium plus supplements in assay-relevant densities. For TGF-β-stimulated assays, cells were seeded at 4,500 cells per well in 96-well plates. Proliferation assays were performed in 96-well plates at an initial seeding cell density on day 0 of 2,000 cells per well. After 24-h, the cell culture medium was changed to starvation medium (fibroblast basal medium without supplements). After a 24-h starvation period, cells were pre-incubated for 30 min with different concentrations of BI 1015550 plus/minus different concentrations of nintedanib and/or 1 nmol/L PGE2 and stimulated with the assay-relevant stimulus for the indicated time in the presence of the compound.
IPF-LF cells were stimulated with bFGF (20 ng/mL) plus IL-1β (30 pg/mL). After 72 h of stimulation, 10-times concentrated bromodeoxyuridine was added and the cells were incubated for another 18 h (final concentration bromodeoxyuridine 10 μmol/L). Cell proliferation was assessed by bromodeoxyuridine assay (Roche, Mannheim, Germany) according to the instruction manual.

For a further test, the target named is T1, PDE7A (Homo sapiens, UniProt Q13946).
T1 construct: made in house; host or cells: SF9 insect cells (baculovirus, Bac-To-Bac, pFastbac)
T1 sequence (Q13946 whole entry): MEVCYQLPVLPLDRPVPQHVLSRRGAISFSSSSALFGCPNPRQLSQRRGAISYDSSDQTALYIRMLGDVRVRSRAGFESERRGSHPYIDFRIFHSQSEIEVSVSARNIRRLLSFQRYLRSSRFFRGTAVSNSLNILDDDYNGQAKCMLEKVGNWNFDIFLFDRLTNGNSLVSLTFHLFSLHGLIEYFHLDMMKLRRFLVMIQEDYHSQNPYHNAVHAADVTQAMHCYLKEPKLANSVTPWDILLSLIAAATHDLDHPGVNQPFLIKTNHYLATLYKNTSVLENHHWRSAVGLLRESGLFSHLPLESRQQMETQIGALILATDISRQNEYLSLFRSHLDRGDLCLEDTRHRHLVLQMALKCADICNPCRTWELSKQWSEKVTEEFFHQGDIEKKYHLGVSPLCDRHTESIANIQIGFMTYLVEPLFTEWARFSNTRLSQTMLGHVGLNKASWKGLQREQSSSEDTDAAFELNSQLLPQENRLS
The experiment in a line: Recombinant PDE activity, scintillation proximity assay: PDE7A. Type of test: biochemical. The conditions noted are these: calculated IC50. The source says:
(§1) For the preparation of human recombinant PDEs of interest, the Bac-To-Bac baculoviral expression system from Invitrogen (Carlsbad, CA, United States) was used according to the instruction manual. In short, the full-length open reading frames of PDE1C (National Center for Biotechnology Information Gene-Ref-Seq identifier NG_051183), PDE3A (NG_030033), PDE4A (NG_029594, AA 156–886), PDE4C (NG_029629), PDE7A (NG_029614), and PDE9A (NG_047067) were cloned into the plasmid vector pFastbac. For PDE4B and PDE4D, active site fragments were used (PDE4B NG_029038: AA 152–484, PDE4D NG_027957, AA 79–438). The plasmids were transformed into DH10Bac bacteria, SF9 insect cells were transfected with the bacmid DNA, and the resulting baculoviruses were stored and used for further rounds of infections. […] The protein content was measured and an equal volume of 87% (v/v) glycerol was added prior to freezing at −20°C. […] The reaction was stopped by addition of 50 µL of yttrium silicate scintillation proximity assay beads (17.8 mg/mL, 18 mM zinc sulfate in H2O) and the amount of produced [^3H]AMP/[^3H]GMP associated was determined using a Wallac Microbeta scintillation counter. […]

In the next test the target is T2, PDE1C (Homo sapiens, UniProt Q14123).
T2 construct: the full-length open reading frames of PDE1C; made in house; host or cells: SF9 insect cells (baculovirus, Bac-To-Bac, pFastbac)
T2 sequence (Q14123 whole entry): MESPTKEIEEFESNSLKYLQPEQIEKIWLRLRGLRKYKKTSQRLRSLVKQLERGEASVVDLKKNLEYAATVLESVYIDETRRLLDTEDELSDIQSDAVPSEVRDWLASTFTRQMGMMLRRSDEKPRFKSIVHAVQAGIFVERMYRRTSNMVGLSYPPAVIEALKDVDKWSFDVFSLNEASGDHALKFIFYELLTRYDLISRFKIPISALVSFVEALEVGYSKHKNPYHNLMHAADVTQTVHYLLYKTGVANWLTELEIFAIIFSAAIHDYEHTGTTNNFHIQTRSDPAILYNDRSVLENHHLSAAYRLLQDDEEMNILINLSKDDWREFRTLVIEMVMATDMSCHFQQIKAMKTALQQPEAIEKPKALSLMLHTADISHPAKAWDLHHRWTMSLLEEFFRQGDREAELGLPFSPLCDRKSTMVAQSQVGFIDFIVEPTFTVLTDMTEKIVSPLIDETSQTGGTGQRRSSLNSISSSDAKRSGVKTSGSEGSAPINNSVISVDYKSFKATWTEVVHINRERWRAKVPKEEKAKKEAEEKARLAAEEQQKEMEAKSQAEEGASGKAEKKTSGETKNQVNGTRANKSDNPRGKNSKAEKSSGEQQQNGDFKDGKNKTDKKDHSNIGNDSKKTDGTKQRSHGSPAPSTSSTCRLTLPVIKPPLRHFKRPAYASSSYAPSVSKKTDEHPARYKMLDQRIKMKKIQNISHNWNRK
Put plainly: Recombinant PDE activity, scintillation proximity assay: PDE1C. The test is classed as biochemical.
Description: as §1
(In general: Scintillation proximity formats need no separation of bound from free tracer.)

The target of a further test is T3, PDE4B (Homo sapiens, UniProt Q07343).
T3 construct: PDE4B NG_029038: AA 152–484; made in house; host or cells: SF9 insect cells (baculovirus, Bac-To-Bac, pFastbac)
T3 sequence (Q07343 324-656): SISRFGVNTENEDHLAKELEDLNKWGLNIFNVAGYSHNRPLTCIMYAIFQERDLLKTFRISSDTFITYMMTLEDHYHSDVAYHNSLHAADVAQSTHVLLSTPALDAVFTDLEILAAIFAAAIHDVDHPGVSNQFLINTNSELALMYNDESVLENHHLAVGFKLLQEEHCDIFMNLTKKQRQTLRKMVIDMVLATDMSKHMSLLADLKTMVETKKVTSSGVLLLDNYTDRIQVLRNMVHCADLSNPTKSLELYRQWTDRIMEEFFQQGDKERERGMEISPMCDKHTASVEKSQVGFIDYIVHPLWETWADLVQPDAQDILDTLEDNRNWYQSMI
Put plainly: Recombinant PDE activity, scintillation proximity assay: PDE4B. The test is classed as biochemical. How it is done:
For the preparation of human recombinant PDEs of interest, the Bac-To-Bac baculoviral expression system from Invitrogen (Carlsbad, CA, United States) was used according to the instruction manual. […] The plasmids were transformed into DH10Bac bacteria, SF9 insect cells were transfected with the bacmid DNA, and the resulting baculoviruses were stored and used for further rounds of infections. For protein production, SF9 cells were infected until a cytopathic effect was visible (after about 72 h), the SF9 cells were harvested and broken up by 3 freeze/thaw cycles, and by shearing 10 times through a 0.1 mm cannula using a syringe. […] The Phosphodiesterase Scintillation Proximity Assays (TRKQ7090 for [^3H]cAMP, GE Healthcare Europe GmbH, Chalfont St Giles, United Kingdom, and TRKQ7100 for [^3H]cGMP, Perkin Elmer, Waltham, MA, United States) were performed essentially according to the instruction manual. […] Assay solutions containing recombinant baculoviral-expressed PDE (to give an activity of 5.000–20.000 cpm corresponding to 5–20% of total activity added), 50 mmol/L Tris/HCl pH 7.5, 8.3 mmol/L MgCl2, 1.7 mmol/L EGTA, and 10 µL radiolabeled substrate (0.05 µCi in H2O) were incubated for 1 h at 30°C (final volume 100 μL).

As for `[O-][S+]1CCc2nc(N3CCC(c4ncc(Cl)cn4)CC3)nc(NC3(CO)CCC3)c21` (stereo not shown) [BI 1015550], the IC50 in the test on IPF-LF cells (IPF-LF, alone, read-out: IC50 bFGF plus IL-1β-induced cell proliferation) is 0.255 µM; on PDE7A it was 14 µM; on PDE1C (substrate cAMP), 46 µM; at PDE1C (substrate cGMP), 85 µM; on PDE4B (human recombinant active site fragment, substrate [3H]cAMP, means from n independent experiments, read-out: IC50 PDE4B2) it was 0.01 µM. Further, the “Additional inhibitory effects in combination, proliferation assay” value in the test with IPF-LF cells (combination with pirfenidone (100 µmol/L), data not shown) is given as “did not yield any additional inhibitory effects”. Moreover, the “Selectivity for inhibition of PDE4B versus PDE4D” value on PDE4B was “roughly 10 fold”.
